The test system of the assay is L1210 leukemia ip in BDF1 mice, survival T/C. The experiment in a line: NCI In Vivo Anticancer Drug Screen. Data for tumor model L1210 Leukemia (intraperitoneal) in B6D2F1 (BDF1) mice. As to conditions: endpoint: mean survival time, higher = longer survival. Summed up: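 Ratio derived from survival: compound-dosed mice over vehicle-dosed mice, all bearing a transplantable tumor.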

The mark [1] stands for this setting: dose: 100.0 mg/kg/injection, schedule: Q01DX009 (ip), vehicle: saline.
The mark [2] stands for this setting: dose: 100.0 mg/kg/injection, schedule: Q04DX003 (ip), vehicle: saline.
The mark [3] stands for this setting: dose: 100.0 mg/kg/injection, schedule: Q01DX009 (ip), vehicle: Klucel (hydroxypropylcellulose) (HPC).
[4] abbreviates: dose: 200.0 mg/kg/injection, schedule: Q01DX009 (ip), vehicle: Klucel (hydroxypropylcellulose) (HPC).
Where [5] appears, read: dose: 400.0 mg/kg/injection, schedule: Q01DX009 (ip), vehicle: Klucel (hydroxypropylcellulose) (HPC).
Where [6] appears, read: dose: 100.0 mg/kg/injection, schedule: Q01DX001 (ip), vehicle: saline.
[7] abbreviates: dose: 200.0 mg/kg/injection, schedule: Q01DX001 (ip), vehicle: saline.
Setting [8] is: dose: 400.0 mg/kg/injection, schedule: Q01DX001 (ip), vehicle: saline.
The mark [9] stands for this setting: dose: 100.0 mg/kg/injection, schedule: Q01DX009 (ip), vehicle: saline with Tween-80.
Setting [10] is: dose: 200.0 mg/kg/injection, schedule: Q01DX009 (ip), vehicle: saline with Tween-80.

These results are taken from PubChem BioAssay AID248 (DTP/NCI, 2004).

The structures appear in SMILES notation. Values joined by “and” are separate entries in the source; they are usually repeats but may differ in a detail not shown here. Equal entries are not always repeated. Inconclusive results and toxic doses are left out.

With `CCN1CC(CCN2CCOCC2)C(c2ccccc2)(c2ccccc2)C1=O` (stereo not drawn), the T/C is, setting by setting: (dose: 6.25 mg/kg/injection, schedule: Q01DX009 (ip), vehicle: saline) 111 % of control; (dose: 12.5 mg/kg/injection, schedule: Q01DX009 (ip), vehicle: saline) 108 % of control; (dose: 25.0 mg/kg/injection, schedule: Q01DX009 (ip), vehicle: saline) 101 % of control; (dose: 25.0 mg/kg/injection, schedule: Q04DX003 (ip), vehicle: saline) 87 % of control; (dose: 50.0 mg/kg/injection, schedule: Q01DX009 (ip), vehicle: saline) 111 % of control; (dose: 50.0 mg/kg/injection, schedule: Q04DX003 (ip), vehicle: saline) 95 % of control. For the same compound, the T/C reads like this: under setting [1], 101 % of control; under setting [2], 92 % of control.
For the compound `O=C1C=C2CCN(Cc3ccccc3)CC2CC1` (stereo not drawn), the T/C runs as follows: (dose: 100.0 mg/kg/injection, schedule: Q01DX001 (ip), vehicle: acetone) 97 % of control; under setting [2], 104 % of control; (dose: 200.0 mg/kg/injection, schedule: Q01DX001 (ip), vehicle: acetone) 102 % of control; (dose: 200.0 mg/kg/injection, schedule: Q04DX003 (ip), vehicle: saline) 101 % of control; (dose: 400.0 mg/kg/injection, schedule: Q01DX001 (ip), vehicle: acetone) 98 % of control.
For the compound `CC(=O)Nc1ccc(OC(=O)Nc2cccc(Cl)c2Cl)cc1`, the T/C runs as follows: under setting [3], 102 % of control; under setting [4], 101 % of control; under setting [5], 97 % of control.
As for `C[n+]1c2c(cc3ccccc31)CCC2`, the T/C by setting is: (dose: 12.5 mg/kg/injection, schedule: Q01DX009 (ip), vehicle: saline with Tween-80) 87 % of control; (dose: 25.0 mg/kg/injection, schedule: Q01DX009 (ip), vehicle: saline with Tween-80) 97 % of control; (dose: 50.0 mg/kg/injection, schedule: Q01DX009 (ip), vehicle: saline with Tween-80) 108 % of control and 90 % of control.
Take `O=C(Nc1ccc(Cl)cc1)C(=O)Nc1ccc(Cl)cc1`: the T/C runs as follows: (dose: 100.0 mg/kg/injection, schedule: Q04DX002 (ip), vehicle: gum acacia) 107 % of control; (dose: 200.0 mg/kg/injection, schedule: Q04DX002 (ip), vehicle: gum acacia) 89 % of control; (dose: 400.0 mg/kg/injection, schedule: Q04DX002 (ip), vehicle: gum acacia) 93 % of control.
`C=CCCCCCCCCC(=O)N/N=C/c1cccc(OC)c1OC`: the T/C (dose: 100.0 mg/kg/injection, schedule: Q04DX002 (ip), vehicle: saline) was 95 % of control; the T/C (dose: 200.0 mg/kg/injection, schedule: Q04DX002 (ip), vehicle: saline) was 103 % of control; the T/C (dose: 400.0 mg/kg/injection, schedule: Q04DX002 (ip), vehicle: saline) was 106 % of control.
On to `COC(=O)C1CC2(Br)C(Br)=C(Br)C1(Br)C2(Br)Br` (stereo not drawn), for which the T/C by setting is: under setting [6], 88 % of control; under setting [1], 102 % of control; under setting [7], 100 % of control; (dose: 200.0 mg/kg/injection, schedule: Q01DX009 (ip), vehicle: saline) 98 % of control; under setting [8], 88 % of control; (dose: 400.0 mg/kg/injection, schedule: Q01DX009 (ip), vehicle: saline) 91 % of control.
Regarding `O=C(O)CCCCNC(=O)c1ccc([N+](=O)[O-])cc1`, the T/C (dose: 100.0 mg/kg/injection, schedule: Q01DX001 (ip), vehicle: saline with Tween-80) is 99 % of control; the T/C (dose: 200.0 mg/kg/injection, schedule: Q01DX001 (ip), vehicle: saline with Tween-80) was 94 % of control; the T/C (dose: 400.0 mg/kg/injection, schedule: Q01DX001 (ip), vehicle: saline with Tween-80) was 87 % of control.
On to `CCOC(=O)C(Oc1ccc([N+](=O)[O-])cc1)C(=O)OCC`, for which the T/C is 98 % of control under setting [3], 98 % of control under setting [4] and 96 % of control under setting [5].
As to `ClC1(Cl)CC1c1ccccc1` (stereo not drawn), the T/C under setting [9] was 101 % of control and the T/C under setting [10] was 91 % of control.
For the compound `CCCn1cnc2c(=S)nc(N)[nH]c21`, the T/C runs as follows: (dose: 0.94 mg/kg/injection, schedule: Q01DX Z (ip), vehicle: methylcellulose (MC)) 105 % of control; (dose: 1.88 mg/kg/injection, schedule: Q01DX Z (ip), vehicle: methylcellulose (MC)) 122 % of control; (dose: 3.3 mg/kg/injection, schedule: Q01DX Z (ip), vehicle: methylcellulose (MC)) 121 % of control; (dose: 3.75 mg/kg/injection, schedule: Q01DX Z (ip), vehicle: methylcellulose (MC)) 108 % of control; (dose: 5.0 mg/kg/injection, schedule: Q01DX Z (ip), vehicle: methylcellulose (MC)) 152 % of control; (dose: 7.5 mg/kg/injection, schedule: Q01DX Z (ip), vehicle: methylcellulose (MC)) 101 % of control. Besides, the T/C (dose: 15.0 mg/kg/injection, schedule: Q01DX Z (ip), vehicle: methylcellulose (MC)) was 105 % of control.
As for `O=C1CCCC(=O)c2c(O)ccc(O)c21`, the T/C is 96 % of control under setting [6], 98 % of control under setting [7] and 96 % of control under setting [8].
In the case of `CCO/C=N/NC(=O)CNC(=O)C=[N+]=[N-]`, the T/C (dose: 180.0 mg/kg/injection, schedule: Q01DX001 (ip), vehicle: water) was 100 % of control and 116 % of control; the T/C (dose: 270.0 mg/kg/injection, schedule: Q01DX001 (ip), vehicle: water) was 101 % of control and 117 % of control; the T/C (dose: 400.0 mg/kg/injection, schedule: Q01DX001 (ip), vehicle: water) was 105 % of control and 117 % of control; the T/C (dose: 600.0 mg/kg/injection, schedule: Q01DX001 (ip), vehicle: water) is 106 % of control and 111 % of control.
`Nc1nc(N)c2nc(CNc3ccc(C(=O)NCC(=O)O)cc3)cnc2n1`: the T/C reads like this: (dose: 5.0 mg/kg/injection, schedule: Q01DX009 (ip), vehicle: Klucel (hydroxypropylcellulose) (HPC)) 93 % of control; (dose: 10.0 mg/kg/injection, schedule: Q01DX009 (ip), vehicle: Klucel (hydroxypropylcellulose) (HPC)) 101 % of control; (dose: 20.0 mg/kg/injection, schedule: Q01DX009 (ip), vehicle: Klucel (hydroxypropylcellulose) (HPC)) 109 % of control; (dose: 40.0 mg/kg/injection, schedule: Q01DX009 (ip), vehicle: Klucel (hydroxypropylcellulose) (HPC)) 105 % of control.
As for `CC1CCCC2C(=O)CCC(C(C)(C)O)C12C` (stereo not drawn), the T/C was 91 % of control under setting [9]; 92 % of control (dose: 100.0 mg/kg/injection, schedule: Q04DX003 (ip), vehicle: saline with Tween-80); 95 % of control under setting [10]; 92 % of control (dose: 200.0 mg/kg/injection, schedule: Q04DX003 (ip), vehicle: saline with Tween-80); 93 % of control (dose: 400.0 mg/kg/injection, schedule: Q01DX009 (ip), vehicle: saline with Tween-80); 92 % of control (dose: 400.0 mg/kg/injection, schedule: Q04DX003 (ip), vehicle: saline with Tween-80).
